29 compounds from patent US20240279236A1, “COMPOUNDS AND METHODS OF TREATING TUBERCULOSIS” (Fimbrion Therapeutics, Inc., priority 2021, published 2024) can be followed below.

The structures appear in SMILES notation.

This experiment deals with WT Mtb Erdman strain. The experiment is described as follows: Microplate Alamar Blue Assay (MABA), Mtb growth inhibition. In kind it is cell-based, Mycobacterium tuberculosis. The conditions noted are these: Mycobacterium tuberculosis, ERDMAN, 168 h, Middlebrook 7H9 media, 7 days at 37° C. in 5% CO2.
By IC50 is commonly meant the concentration needed to halve the response being measured. The low end stands for higher potency, the high end for lower potency. The compound `Cc1cc2c(N[C@@H]3C[C@H]3c3ccc(F)c(F)c3)nc(-c3ncccn3)nc2s1` [Example 41, N-((1R,2S)-2-(3,4-difluorophenyl)cyclopropyl)-6-methyl-2-(pyrimidin-2-yl)thieno[2,3-d]pyrimidin-4-amine] showed an IC50 greater than 10 µM.

In turn, `Cc1cc2c(N[C@@H]3C[C@H]3c3ccc(F)c(F)c3)nc(-c3nccs3)nc2s1` [Example 42, N-((1R,2S)-2-(3,4-difluorophenyl)cyclopropyl)-6-methyl-2-(thiazol-2-yl)thieno[2,3-d]pyrimidin-4-amine] registered an IC50 of 8.1 µM.

The compound `Cc1cc2c(N[C@@H]3C[C@H]3c3ccc(F)c(F)c3)nc(C3CC3)nc2s1` [Example 43, 2-cyclopropyl-N-((1R,2S)-2-(3,4-difluorophenyl)cyclopropyl)-6-methylthieno[2,3-d]pyrimidin-4-amine] returned a half-maximal inhibitory concentration (IC50) of 2.4 µM.

The compound `Cc1cc2c(N[C@@H]3C[C@H]3c3ccc(F)c(F)c3)nc(-c3cccnc3)nc2s1` [Example 44, N-((1R,2S)-2-(3,4-difluorophenyl)cyclopropyl)-6-methyl-2-(pyridin-3-yl)thieno[2,3-d]pyrimidin-4-amine] returned an IC50 of 6.3 µM.

As for `Fc1ccc([C@@H]2C[C@H]2Nc2nc(-c3ccccn3)nc3sc(C(F)(F)F)cc23)cc1F` [Example 45, N-((1R,2S)-2-(3,4-difluorophenyl)cyclopropyl)-2-(pyridin-2-yl)-6-(trifluoromethyl)thieno [2,3-d]pyrimidin-4-amine], the IC50 was found to be 2.8 µM.

As for `Cc1cc2c(N[C@@H]3C[C@H]3c3ccc(F)c(F)c3)nc(-c3ccc(F)cn3)nc2s1` [Example 46, N-((1R,2S)-2-(3,4-difluorophenyl)cyclopropyl)-2-(5-fluoropyridin-2-yl)-6-methylthieno[2,3-d]pyrimidin-4-amine], the IC50 was 2.2 µM.

The compound `Cc1cc2c(N[C@@H]3C[C@H]3c3ccc(F)c(F)c3)nc(-c3ccncc3)nc2s1` [Example 47, N-((1R,2S)-2-(3,4-difluorophenyl)cyclopropyl)-6-methyl-2-(pyridin-4-yl)thieno[2,3-d]pyrimidin-4-amine] registered an IC50 greater than 8.8 µM.

`Cc1cc2c(NCCCc3ccc(C(F)(F)F)cc3)nc(C(F)(F)F)nc2s1` [Example 48, 6-methyl-2-(trifluoromethyl)-N-(3-(4-(trifluoromethyl)phenyl)propyl)thieno[2,3-d] pyrimidin-4-amine] yielded a half-maximal inhibitory concentration (IC50) of 2.6 µM.

Turning to `COc1ccc(CCCNc2nc(C(F)(F)F)nc3sc(C)cc23)cc1` [Example 49, N-(3-(4-methoxyphenyl)propyl)-6-methyl-2-(trifluoromethyl)thieno [2,3-d]pyrimidin-4-amine], the IC50 was 2 µM.

In turn, `Cc1cc2c(N[C@@H]3C[C@H]3c3ccc(F)c(F)c3)nc(C(C)(F)F)nc2s1` [Example 50, 2-(1,1-difluoroethyl)-N-((1R,2S)-2-(3,4-difluorophenyl)cyclopropyl)-6-methylthieno[2,3-d]pyrimidin-4-amine] came in with a half-inhibitory concentration (IC50) of 1.1 µM.

Take `Cc1cc2c(NCCCc3ccccc3)nc(C(C)(C)C)nc2s1` [Example 51, 2-(tert-butyl)-6-methyl-N-(3-phenylpropyl)thieno [2,3-d]pyrimidin-4-amine]: the IC50 was greater than 10 µM.

Take `CCCc1nc(N[C@@H]2C[C@H]2c2ccc(F)c(F)c2)c2cc(C)sc2n1` [Example 52, N-((1R,2S)-2-(3,4-difluorophenyl)cyclopropyl)-6-methyl-2-propylthieno[2,3-d]pyrimidin-4-amine]: inhibition was half-maximal at 0.81 µM (IC50).

In the case of `CSc1nc(N[C@@H]2C[C@H]2c2ccc(F)c(F)c2)c2cc(C)sc2n1` [Example 53, N-((1R,2S)-2-(3,4-difluorophenyl)cyclopropyl)-6-methyl-2-(methylthio)thieno[2,3-d]pyrimidin-4-amine], the midpoint of inhibition, the IC50, lay at 0.24 µM.

The compound `CCCc1nc(NCCCc2ccccc2)c2cc(C)sc2n1` [Example 54, 6-methyl-N-(3-phenylpropyl)-2-propylthieno[2,3-d]pyrimidin-4-amine] yielded a 50% inhibitory concentration (IC50) of 0.31 µM.

`CSc1nc(NCCCc2ccccc2)c2cc(C)sc2n1` [Example 55, 6-methyl-2-(methylthio)-N-(3-phenylpropyl)thieno [2,3-d]pyrimidin-4-amine] returned a half-inhibitory concentration (IC50) of 0.017 µM.

In the case of `Cc1cc2c(N[C@@H]3C[C@H]3c3ccc(F)c(F)c3)nc(-c3ccc(F)cc3)nc2s1` [Example 56, N-((1R,2S)-2-(3,4-difluorophenyl)cyclopropyl)-2-(4-fluorophenyl)-6-methylthieno[2,3-d]pyrimidin-4-amine], the midpoint of inhibition, the IC50, lay at 4.2 µM.

For the compound `Cc1cc2c(NCCCc3ccccc3)nc(-c3ncco3)nc2s1` [Example 57, 6-methyl-2-(oxazol-2-yl)-N-(3-phenylpropyl)thieno [2,3-d]pyrimidin-4-amine], half-maximal inhibition (IC50) was put at 4.1 µM.

`Cc1cc2c(NCCCc3ccccc3)nc(C3(N)CC3)nc2s1` [Example 58, 2-(1-aminocyclopropyl)-6-methyl-N-(3-phenylpropyl)thieno [2,3-d]pyrimidin-4-amine] registered an IC50 of 5 µM.

On to `CCc1nc(NCCCc2ccc(F)c(F)c2)c2cc(C)sc2n1` [Example 59, N-(3-(3,4-difluorophenyl)propyl)-2-ethyl-6-methylthieno[2,3-d]pyrimidin-4-amine], for which the IC50 stood at 0.43 µM.

For the compound `Cc1cc2c(NCCCc3ccc(F)c(F)c3)nc(C(F)(F)F)nc2s1` [Example 60, N-(3-(3,4-difluorophenyl)propyl)-6-methyl-2-(trifluoromethyl)thieno [2,3-d]pyrimidin-4-amine], the midpoint of inhibition, the IC50, lay at 4.9 µM.

`CCc1nc(NC/C=C/c2ccccc2)c2cc(C)sc2n1` [Example 61, N-cinnamyl-2-ethyl-6-methylthieno[2,3-d]pyrimidin-4-amine] displayed an IC50 of 0.07 µM.

For the compound `CCc1nc(NCCNc2ccccc2)c2cc(C)sc2n1` [Example 62, N1-(2-ethyl-6-methylthieno[2,3-d]pyrimidin-4-yl)-N2-phenylethane-1,2-diamine], the half-inhibitory concentration (IC50) came to 0.81 µM.

In the case of `Cc1cc2c(NCCCc3ccccc3)nc(-c3cccs3)nc2s1` [Example 63, 6-methyl-N-(3-phenylpropyl)-2-(thiophen-2-yl)thieno[2,3-d]pyrimidin-4-amine], the IC50 was 1.9 µM.

In turn, `CCc1nc(NCCCOc2ccccc2)c2cc(C)sc2n1` [Example 64, 2-ethyl-6-methyl-N-(3-phenoxypropyl)thieno [2,3-d]pyrimidin-4-amine] displayed an IC50 of 1.7 µM.

Compound `CCc1nc(NCCOc2ccc(Br)cc2)c2cc(C)sc2n1` [Example 65, N-(2-(4-bromophenoxy)ethyl)-2-ethyl-6-methylthieno[2,3-d]pyrimidin-4-amine] displayed an IC50 of 2.8 µM. This IC50 is about 1.6-fold higher than that of the compound before.

Compound `CCc1nc(NCCC(C)(C)c2ccccc2)c2cc(C)sc2n1` [Example 66, 2-ethyl-6-methyl-N-(3-methyl-3-phenylbutyl)thieno [2,3-d]pyrimidin-4-amine] registered a half-maximal inhibitory concentration (IC50) of 6 µM.

Consider `CCc1nc(NCCc2ccc(O)cc2)c2cc(C)sc2n1` [Example 67, 4-(2-((2-ethyl-6-methylthieno[2,3-d]pyrimidin-4-yl)amino)ethyl)phenol], for which the concentration for half-maximal inhibition (IC50) is greater than 10 µM.

For the compound `CCc1nc(NCCS(=O)(=O)c2ccccc2)c2cc(C)sc2n1` [Example 68, 2-ethyl-6-methyl-N-(2-(phenylsulfonyl)ethyl) thieno[2,3-d]pyrimidin-4-amine], the IC50 is greater than 10 µM.

Consider `CCc1nc(NCCCOc2ccc(Cl)cc2)c2cc(C)sc2n1` [Example 69, N-(3-(4-chlorophenoxy)propyl)-2-ethyl-6-methylthieno[2,3-d]pyrimidin-4-amine], for which half-maximal inhibition (IC50) was put at 1.1 µM.
